Reference: a melting point compilation (Tetko et al.)

| Compound | melting point |
| --- | --- |
| Cc1nc(-c2ccccc2)sc1C(=O)CBr | 117 to 118 °C |
| Cc1cc(C2CCCCC2)n(O)c(=O)c1 | 144 °C |
| COc1ccc(C(O)(c2cc(OC)c(OC)c(OC)c2)c2ccc(OC)cc2OC)c(OC)c1 | 109 °C |
| C=CC1CC=CCC1 (centres undefined) | -109 °C |
| N[C@@H](Cc1ccc(OCc2ccccc2)cc1)C(=O)O | 259 °C |
| O=C(O)Cc1ccc(F)c(F)c1 | 49 °C |
| Fc1c(F)c(F)c(Br)c(F)c1F | -31 °C |
| NC(Cc1cccc2ccccc12)=NO | 127 to 129 °C |
| NC(=S)CS(=O)(=O)c1cccs1 | 160 to 164 °C |
| CCCCCCCc1ccc(C(=O)Oc2ccc(C#N)cc2)cc1 | 43 to 46 °C |
| O=C(O)c1ccc(C(F)(F)F)cc1C(F)(F)F | 109 to 113 °C |
| Cc1ccc(N=C=O)cc1[N+](=O)[O-] | 51 °C |
| CC(=O)Nc1ccc(N=Nc2ccc(N=Nc3ccc(/N=N/c4ccc(NC(C)=O)cc4)cc3)cc2)cc1 | 245 to 248 °C |
| c1cc2c3c(c1)CCC3CCC2 (centres undefined) | 12.8 °C |
| COc1ccc(C(=O)O)c(Cl)c1OC | 193 to 196 °C |
| CC1(C)OC2CC3C4CCC5=CC(=O)C=CC5(C)C4C(O)CC3(C)C2(C(=O)CO)O1 (centres undefined) | 274 °C |

| Compound | melting point |
| --- | --- |
| NC(=O)Nc1ccc(Br)cc1 | 226 °C |
| Clc1cc2oc3c(Cl)c(Cl)ccc3c2c(Cl)c1Cl | 206 °C |
| N[C@@H](Cc1ccc(O)c([N+](=O)[O-])c1)C(=O)O | 233 to 235 °C |
| CC(=Cc1ccc(C(=O)O)cc1)c1ccc2c(c1)C(C)(C)CCC2(C)C | 240 °C |
| CC(C)CC(NC(=O)C(O)C(N)Cc1ccccc1)C(=O)O (centres undefined) | 233 °C |
| Cc1c(Nc2ncccc2C(=O)O)cccc1C(F)(F)F | 226 °C |
| O=C(c1ccc(Cl)cc1)c1nn(-c2ccccc2)/c(=N\N=Cc2ccc(F)cc2)s1 | 150 °C |
| O=C(O)c1ccc(C(=O)O)nc1 | 254 °C |
| N#CC1=C(N)Oc2c(c(C(F)(F)F)nn2-c2ccccc2)C1c1ccccc1 (centres undefined) | 191 °C |
| O=C(O)C(F)C(F)(F)F (centres undefined) | 28.2 to 29.2 °C |
| O=C(O)c1cnn(-c2ccc([N+](=O)[O-])cc2[N+](=O)[O-])c1 | 260 to 262 °C |
| O=C1Cc2cc(O)ccc2O1 | 190 to 195 °C |
| O=C(O)c1cc2cc(Cl)cc(Cl)c2oc1=O | 198 to 200 °C |
| C=CN1CCCCCC1=O | 34 °C |
| CC1=CC(=O)OC2(C1)CC1CCC2CN1C (centres undefined) | 54.5 °C |

Next, values leading:

| melting point | Compound |
| --- | --- |
| 127 °C | c1ccc(N(c2ccccc2)c2ccccc2)cc1 |
| 210 to 212 °C | C/C(C#Cc1ccccc1)=C/C(C)=N/Nc1ccc([N+](=O)[O-])cc1[N+](=O)[O-] |
| 125 to 126 °C | CC(C)(C)OC(=O)N1Cc2ccccc2C[C@H]1C(=O)O |
| 71 to 73 °C | Cc1c(Cl)cccc1S(=O)(=O)Cl |
| 99.5 °C | CC(=O)CC(=O)C(=O)O |
| 104 °C | CC(=O)Nc1cccc(C=CC(=O)c2ccccc2)c1 |
| 101 to 104 °C | O=C(O)Cc1ccc(C(=O)CCl)s1 |
| 50 to 52 °C | FC(F)(F)c1ccc(N2CCOCC2)c(Br)c1 |
| 93 °C | CS(=O)(=O)c1ccc(O)cc1 |
| 77 to 78 °C | Fc1c(F)c(CCl)c(F)c(F)c1CCl |
| 42 to 44 °C | CCCCCc1ccc(S(=O)(=O)Cl)cc1 |
| 178 to 181 °C | O=C1CSc2ccccc2N1 |
| -120 °C | CC=CC(C)C |
| 76 °C | c1cc(SSc2ccncc2)ccn1 |
| 200 to 201 °C | NNC(=O)C1SCCN1S(=O)(=O)c1ccc(Cl)cc1 (centres undefined) |
| 88 °C | CC(C)(C)c1cc(O)cc(C(C)(C)C)c1 |
| 246 °C | CC(=O)OC1CC2C(C)C(=O)C3(C(O)CC4C(C)(C)CCC(OC(C)=O)C4(C)C13)C2O (centres undefined) |
| 119 to 122 °C | Cc1nc(-c2ccc(C(F)(F)F)cc2)sc1CO |
| 150 °C | O=[N+]([O-])c1ccc(C=NN(c2ccccc2)P(=O)(N2CC2)N2CC2)cc1 |
| 74 °C | COC1=C(OC)C(C(CBr)OC(C)=O)OC1=O (centres undefined) |
| 85 °C | Cn1ccc2c1CCCC2=O |
| 50 °C | OCCCCC#CC#CCCCCO |
| 46 °C | Cc1ccc2c(c1)C(=O)C2 |
| 105 °C | CCn1ccc2ccccc21 |
| 213 °C | C(=Cc1ccc2ccc3ccccc3c2c1)c1ccc2ccccc2c1 |
| 221 °C | O=C1CCC(=O)N1c1nnc(C(F)(F)F)s1 |
| 108 °C | CC(C)NCC(O)c1ccc2ccccc2c1 (centres undefined) |
| 208 to 212 °C | O=C(O)c1ncccc1O |
